pIC50: −log10 of the molar value. Where two headings read alike, the source gives them in different places.

This assay deals with T1, PARP7 (Homo sapiens, UniProt Q7Z3E1).
T1 construct: purchased BPS Bioscience
T1 sequence (Q7Z3E1 1-657): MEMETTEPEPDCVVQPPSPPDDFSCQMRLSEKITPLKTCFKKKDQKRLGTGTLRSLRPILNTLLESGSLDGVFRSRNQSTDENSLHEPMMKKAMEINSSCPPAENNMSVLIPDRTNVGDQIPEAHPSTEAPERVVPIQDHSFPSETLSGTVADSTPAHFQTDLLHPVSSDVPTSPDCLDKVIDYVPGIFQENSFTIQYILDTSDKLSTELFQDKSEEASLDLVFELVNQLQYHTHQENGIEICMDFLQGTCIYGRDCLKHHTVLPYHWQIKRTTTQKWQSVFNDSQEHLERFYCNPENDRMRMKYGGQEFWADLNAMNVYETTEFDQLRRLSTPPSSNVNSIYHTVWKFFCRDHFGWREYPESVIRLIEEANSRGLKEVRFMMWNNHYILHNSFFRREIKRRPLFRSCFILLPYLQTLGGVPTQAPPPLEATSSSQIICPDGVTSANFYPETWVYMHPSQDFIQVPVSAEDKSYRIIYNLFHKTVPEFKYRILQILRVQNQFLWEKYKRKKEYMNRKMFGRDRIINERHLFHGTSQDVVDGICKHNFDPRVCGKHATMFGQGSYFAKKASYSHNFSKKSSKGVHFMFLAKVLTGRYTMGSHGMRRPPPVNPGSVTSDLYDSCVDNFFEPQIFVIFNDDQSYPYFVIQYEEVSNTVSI
In words: Inhibitory activity of compounds on PARP7 enzyme (PARP7 Chemiluminescent Assay Kit). It counts as biochemical. As for the experimental part:
Experimental materials: PARP7 Chemiluminescent Assay Kit, BPS Bioscience; DMSO, China National Pharmaceutical Group, Nivo, PerkinElmer.
(1) Preparation of Solutions and Buffers:
Preparation of 10×PBS: 720 mg of KH2PO4, 45 g of NaCl and 5.311 g of Na2HPO4·12H2O were weighed respectively and dissolved in 500 mL of deionized water, a system pH value was adjusted to 7.4, sterilization was performed at 121° C. for 30 min, and the system after cooling was placed at 4° C. for later use.
Preparation of 1×PBS: 10×PBS was diluted 10 times with deionized water, that is, 9 parts of deionized water was added to 1 part of 10×PBS for dilution.
Preparation of wash buffer: 1×PBS contained 0.05% Tween-20.
Preparation of 1×PARP buffer (prepared freshly before use): 10×PARP buffer was diluted 10 times with deionized water and placed on ice for later use.
(2) Preparation of Compound Working Solution Concentration:
According to test requirements, a compound to be tested is diluted with 100% DMSO to a desired concentration, and then diluted 10 times with 1×PARP buffer to prepare a 10× compound working solution.
a. 5× histone mixture was thawed on ice one day prior to the experiment;
b. preparation of 1× histone mixture: 1× histone mixture was prepared through the 5× histone mixture by using 1×PBS; and 25 μL of 1× histone mixture was taken from each well and transferred into a test well plate and incubated overnight at 4° C.;
c. 100 μL of Blocking buffer was taken from each well and added to the test well plate and incubated for 90 min at 25° C.;
d. after the incubation was completed, the liquid in the test well plate was spin-dried, and the test well plate was washed repeatedly for 3 times;
e. 2.5 μL of the compound working solution was taken from each well and added to the test well plate according to an experimental layout diagram; and 1×PARP buffer with a corresponding volume of 10% DMSO was added to positive control wells (Positive Control), and 1×PARP buffer of a corresponding volume was added to blank control wells (Blank);
f. after the enzyme was completely dissolved, an enzyme stock solution was diluted with 1×PARP buffer to 6 ng/μL;
g. 10 μL of enzyme solution was taken from each well and added to the test well plate, the blank control wells were added with the corresponding volume of 1×PARP buffer, and in which case, the enzyme amount was 60 ng per well. Note: this step needs to be performed on ice;
h. 12.5 μL of master mixture was added to each well of the test well plate (12.5 μL master mixture included 1.25 μL of 10×PARP buffer, 1.25 μL of Opti-PARP 10× Assay mixture and 10 μL of water); the test well plate was sealed and incubated at 25° C. for 60 min;
i. after the incubation was completed, the liquid in the test well plate was spin-dried, and the test well plate was washed repeatedly for 3 times;
j. Streptavidin-HRP in a kit was diluted 50 times with a Blocking buffer, 25 μL was taken from each well and added to the test well plate, and incubated at 25° C. for 30 min;
k. after the incubation was completed, the liquid in the test well plate was spin-dried, and the test well plate was washed repeatedly for 3 times;
l. ELISA ECL Substrate A and ELISA ECL Substrate B in the kit was mixed to obtain a mixed solution according to a ratio of 1:1, 50 μL of the mixed solution was added to each well of the test well plate, Nivo was used to perform Luminescence detection immediately, and a luminous value (RLU) was read; and
m. calculation of an enzyme rate: Enzyme Activity=(RLU(Sample)−RLU(Blank))/(RLU(Pos.Ctrl)−RLU(Blank))×100%; and enzyme inhibition rate=1−% Enzyme Activity, and specific results were shown in Table 1 below.

Setting [1] is: chemiluminescence, symbols defined as IC50 classes, read-out: 100 nM Inhibition Rate.
[2] abbreviates: summary of Table 1, read-out: enzyme inhibition IC50 values.

`C[C@@H](CN1CC(C(=O)N2CCN(c3ncccn3)CC2)C1)Nc1cn[nH]c(=O)c1C(F)(F)F` [I-A-14, (S)-5-((1-(3-(4-(pyrimidin-2-yl)piperazine-1-carbonyl)azetidin-1-yl)propan-2-yl)amino)-4-(trifluoromethyl)pyridazin-3(2H)-one]: the pIC50 under setting [1] is 6.30 to 7.00.
With `C[C@@H](CN1CC(C(=O)NC2CN(c3ncc(C(F)(F)F)cn3)C2)C1)Nc1cn[nH]c(=O)c1C(F)(F)F` [I-A-15, (S)-1-(2-((6-oxo-5-(trifluoromethyl)-1,6-dihydropyridazin-4-yl)amino)propyl)-N-(1-(5-(trifluoromethyl)pyrimidin-2-yl)azetidin-3-yl)azetidine-3-carboxamide], the pIC50 under setting [1] is > 7.00.
Consider `C[C@@H](CN1CC(C(=O)N(C)C2CN(c3ncc(C(F)(F)F)cn3)C2)C1)Nc1cn[nH]c(=O)c1C(F)(F)F` [I-A-16, (S)-N-methyl-1-(2-((6-oxo-5-(trifluoromethyl)-1,6-dihydropyridazin-4-yl)amino)propyl)-N-(1-(5-(trifluoromethyl)pyrimidin-2-yl)azetidin-3-yl)azetidine-3-carboxamide], for which, under setting [1], the pIC50 is > 7.00.
On to `CC1CN(c2ncc(C(F)(F)F)cn2)CC(C)N1C(=O)C1CN(C[C@H](C)Nc2cn[nH]c(=O)c2C(F)(F)F)C1` (stereo partly drawn) [I-A-17, 5-(((2S)-1-(3-(2,6-dimethyl-4-(5-(trifluoromethyl)pyrimidin-2-yl)piperazine-1-carbonyl)azetidin-1-yl)propan-2-yl)amino)-4-(trifluoromethyl)pyridazin-3(2H)-one], for which the pIC50 under setting [1] is > 7.00.
In the case of `C[C@@H](CN1CC[C@H](C(=O)N2CCN(c3ncc(C(F)(F)F)cn3)CC2)C1)Nc1cn[nH]c(=O)c1C(F)(F)F` [I-A-18, 4-(trifluoromethyl)-5-(((2S)-1-(3-(4-(5-(trifluoromethyl)pyrimidin-2-yl)piperazine-1-carbonyl)pyrrolidin-1-yl)propan-2-yl)amino)pyridazin-3(2H)-one], the pIC50 under setting [1] was 6.30 to 7.00.
Turning to `C[C@@H](CN1CCC(C(=O)N2CCN(c3ncc(C(F)(F)F)cn3)CC2)CC1)Nc1cn[nH]c(=O)c1C(F)(F)F` [I-A-19, (S)-4-(trifluoromethyl)-5-((1-(4-(4-(5-(trifluoromethyl)pyrimidin-2-yl)piperazine-1-carbonyl)piperidin-1-yl)propan-2-yl)amino)pyridazin-3(2H)-one], the pIC50 under setting [1] was 6.30 to 7.00.
`O=C(C1CN(CCNc2cn[nH]c(=O)c2C(F)(F)F)C1)N1CCN(c2ncc(C(F)(F)F)cn2)CC1` [I-A-20, 4-(trifluoromethyl)-5-((2-(3-(4-(5-(trifluoromethyl)pyrimidin-2-yl)piperazine-1-carbonyl)azetidin-1-yl)ethyl)amino)pyridazin-3(2H)-one]: the pIC50 is > 7.00 under setting [1] and > 7.00 under setting [2].
For `C[C@@H](CCN1CC(C(=O)N2CCN(c3ncc(C(F)(F)F)cn3)CC2)C1)Nc1cn[nH]c(=O)c1C(F)(F)F` [I-A-21, (S)-4-(trifluoromethyl)-5-((4-(3-(4-(5-(trifluoromethyl)pyrimidin-2-yl)piperazine-1-carbonyl)azetidin-1-yl)butan-2-yl)amino)pyridazin-3(2H)-one], the pIC50 under setting [1] is 6.30 to 7.00.
Turning to `C[C@@H](CN1CC(C(=O)N2CCN(c3ncc(C(F)(F)F)cn3)CC2)C1)Nc1cn[nH]c(=O)c1Cl` [I-A-22, (S)-4-chloro-5-((1-(3-(4-(5-(trifluoromethyl)pyrimidin-2-yl)piperazine-1-carbonyl)azetidin-1-yl)propan-2-yl)amino)pyridazin-3(2H)-one], the pIC50 under setting [1] was 6.30 to 7.00.
On the same count and under the same terms, for `C[C@@H](CN1CC(C(=O)N2CCN(c3ncc(C(F)(F)F)cn3)CC2)C1)Nc1cn[nH]c(=O)c1Br` [I-A-23, (S)-4-bromo-5-((1-(3-(4-(5-(trifluoromethyl)pyrimidin-2-yl)piperazine-1-carbonyl)azetidin-1-yl)propan-2-yl)amino)pyridazin-3(2H)-one] the value was 6.30 to 7.00.
`O=C(C1CN(CC2(Nc3cn[nH]c(=O)c3C(F)(F)F)CC2)C1)N1CCN(c2ncc(C(F)(F)F)cn2)CC1` [I-A-24, 4-(trifluoromethyl)-5-((1-((3-(4-(5-(trifluoromethyl)pyrimidin-2-yl)piperazine-1-carbonyl)azetidin-1-yl)methyl)cyclopropyl)amino)pyridazin-3(2H)-one]: the pIC50 under setting [1] was 6.30 to 7.00.
For `C[C@@H](CN1CC(C(=O)N2CCN(c3ccc4c(c3)OC(F)(F)O4)CC2)C1)Nc1cn[nH]c(=O)c1C(F)(F)F` [I-B-1, (S)-5-((1-(3-(4-(2,2-difluorobenzo[d][1,3]dioxol-5-yl)piperazine-1-carbonyl)azetidin-1-yl)propan-2-yl)amino)-4-(trifluoromethyl)pyridazin-3(2H)-one], the pIC50 under setting [1] is > 7.00 and the pIC50 under setting [2] is > 7.00.
For `C[C@@H](Cn1ccc(C(=O)N2CCN(c3ncc(C(F)(F)F)cn3)CC2)c1)Nc1cn[nH]c(=O)c1C(F)(F)F` [I-C-1, (S)-4-(trifluoromethyl)-5-((1-(3-(4-(5-(trifluoromethyl)pyrimidin-2-yl)piperazine-1-carbonyl)-1H-pyrrol-1-yl)propan-2-yl)amino)pyridazin-3(2H)-one], the pIC50 under setting [1] was > 7.00 and the pIC50 under setting [2] is > 7.00.
With `CC(CC1CN(C(=O)C2CCN(c3ncc(C(F)(F)F)cn3)CC2)C1)Nc1cn[nH]c(=O)c1C(F)(F)F` [I-D-1, 4-(trifluoromethyl)-5-((1-(1-(1-(5-(trifluoromethyl)pyrimidin-2-yl)piperidine-4-carbonyl)azetidin-3-yl)propan-2-yl)amino)pyridazin-3(2H)-one], the pIC50 was > 7.00 under setting [1] and > 7.00 under setting [2].
Take `O=C(NCCCCNc1cn[nH]c(=O)c1C(F)(F)F)N1CCN(c2ncc(C(F)(F)F)cn2)CC1` [I-E-1, N-(4-((6-oxo-5-(trifluoromethyl)-1,6-dihydropyridazin-4-yl)amino)butyl)-4-(5-(trifluoromethyl)pyrimidin-2-yl)piperazine-1-carboxamide]: the pIC50 is > 7.00 under setting [1] and > 7.00 under setting [2].
Consider `O=C(NC/C=C/CNc1cn[nH]c(=O)c1C(F)(F)F)N1CCN(c2ncc(C(F)(F)F)cn2)CC1` [I-E-2, (E)-N-(4-((6-oxo-5-(trifluoromethyl)-1,6-dihydropyridazin-4-yl)amino)but-2-en-1-yl)-4-(5-(trifluoromethyl)pyrimidin-2-yl)piperazine-1-carboxamide], for which the pIC50 is > 7.00 under setting [1] and > 7.00 under setting [2].
Consider `O=C(Nc1cccc(CNc2cn[nH]c(=O)c2C(F)(F)F)c1)N1CCN(c2ncc(C(F)(F)F)cn2)CC1` [I-E-7, N-(3-(((6-oxo-5-(trifluoromethyl)-1,6-dihydropyridazin-4-yl)amino)methyl)phenyl)-4-(5-(trifluoromethyl)pyrimidin-2-yl)piperazine-1-carboxamide], for which the pIC50 is > 7.00 under setting [1] and > 7.00 under setting [2].

The values are drawn from patent US20250346579A1, “PYRIDAZINONE COMPOUND AND PREPARATION METHOD THEREFOR, PHARMACEUTICAL COMPOSITION THEREOF, AND APPLICATION THEREOF” (CHINA PHARMACEUTICAL UNIVERSITY, priority 2021, published 2025).
